Tests used:
[1] = system: HUVECs; test: scratch wound healing assay; assay type: cell-based, human
Description: (§1) Collagen invasion assay was performed as previously described (Kang, et al. (2011) J. Biol. Chem. 286:42017-26). In vitro capillary network formation on […] (BD Biosciences, San Jose, Calif.) and scratch wound healing assay were performed as previously described (Humtsoe, et al. (2010) Mol. Cell Biol. 30:1593-1606). Fibrin gel sprouting assay was performed as described by Nakatsu & Hughes ((2008) Methods Enzymol. 443:65-82). VEGF (2.2 nmol/L) stimulation was used for all in vitro angiogenesis assays. Transwell migration assay was performed as described by Kaplan, et al. ((2011) Free Radical Res. 45:1124-35) using VEGF (4.4 nmol/L), sphingosine-1-phosphate (S1P) (1 μmol/L), or basic fibroblast growth factor (bFGF) (50 ng/mL) in the presence or absence of kinesin-derived angiogenesis inhibitor (DUF2C5; residues 1238-1260 of KIF13B) at varying concentrations.
EC migration in response to DUF2C5 was determined using the scratch wound healing assay. […] The […] migration assay was also employed to determine whether the inhibitory effect of DUF2C5 on EC migration was specific to VEGF. HUVECs were placed in the […] chamber with or without DUF2C5 or CT23. […] PBS and CT23 had no effect on EC migration induced by all stimuli.

[2] = system: HUVECs; test: fibrin gel sprouting assay (3-dimensional culture of HUVECs on beads); assay type: cell-based, human; settings: 1 μmol/L, VEGF-induced EC sprouting
Description: as §1
Changes in VEGF-induced network formation assay were assessed in […] plugs. […] VEGF-induced EC sprouting was also determined by 3-dimensional culture of HUVECs on beads (Nakatsu & Hughes (2008) Methods Enzymol. 443:65-82).

[3] = target: T1, PDGFRα (Homo sapiens, UniProt P16234); test: pull-down on streptavidin beads followed by mass spec analysis; assay type: binding; settings: peptide immobilized on streptavidin beads
T1 construct: endogenous in cells
Description: (§2) Additionally, the sequence of DUF2C5 is highly conserved in mammalian KIF13B. […] To further test the specificity of DUF2C5, pull-down of proteins was conducted using DUF2C5 or control peptide (CT23) immobilized on streptavidin beads followed by mass spec analysis of the binding proteins. This analysis detected the presence of KIF13B, VEGFR2, and co-receptor NRP1 (number of hits were 28, 11, and 5, respectively). Tie2, Par1, S1PR1, and FGFR were not found. Other cargo for KIF13B (e.g., CentA, hDlg) were also not found. […] The affinity of each receptor tyrosine kinase was subsequently tested via surface plasmon resonance (SPR) with BIACORE (UIC, RRC), using DUF2C5 and CT23 on an avidin-coated chip, and recombinant cytosolic domain of kinases (Fisher Scientific).

[4] = target: T2, PDGFRβ (Homo sapiens, UniProt P09619); test: as above; assay type: binding; settings: peptide immobilized on streptavidin beads
T2 construct: endogenous in cells
Description: as §2

[5] = target: T3, EGFR (Homo sapiens, UniProt P00533); test: as above; assay type: binding; settings: peptide immobilized on streptavidin beads
T3 construct: endogenous in cells
Description: as §2

[6] = target: VEGFR2 (Homo sapiens, UniProt P35968); test: surface plasmon resonance (SPR) with BIACORE; assay type: binding; parameters: recombinant cytosolic domain of kinases (Fisher Scientific); purchased Fisher Scientific; settings: peptide on avidin-coated chip, recombinant cytosolic domain of kinase
Description: as §2

[7] = system: HUVECs; test: VEGF-induced proliferation, WST-1 assay; assay type: cell-based, human; settings: 3 μmol/L
Description: VEGF-induced proliferation and viability of HUVECs were assessed by the WST-1 assay (Roche) as previously described (Cai, et al. (2006) Microvasc. Res. 71:20-31; Jones, eta 1. (2005) Br. J. Pharmacol. 145:1093-102). […] Then HUVECs were stimulated with VEGF (2.2 nmol/L), with and without DUF2C5 (1, 3, and 10 μmol/L), or negative control peptide (CT23, 3 μmol/L) for 48 hours to test VEGF-induced proliferation by WST-1 assay in a 96-well format.
The effects of DUF2C5 on VEGF-induced proliferation were subsequently determined by the WST-1 assay.

[8] = system: HUVECs; test: uptake of biotin-tagged peptides by HUVECs, flow cytometry; assay type: cell-based, human; settings: biotin-tagged peptide, 2 hours incubation
Description: Next, EC uptake of the peptides by HUVECs was determined. Both DUF2C5 and CT23 were designed to have high pI (pH at which the molecules carry no net charge), pI 12.1 and 10.4, respectively; thus, in neutral pH, both peptides have a positive charge important for cellular uptake (Jones, et al. (2005) Br. J. Pharmacol. 145:1093-1102). DUF2C5 and CT23 were synthesized with a biotin-tag and visualized using streptavidin-[…].

Sequence of VEGFR2 (P35968 786-1356 limits assumed, species assumed): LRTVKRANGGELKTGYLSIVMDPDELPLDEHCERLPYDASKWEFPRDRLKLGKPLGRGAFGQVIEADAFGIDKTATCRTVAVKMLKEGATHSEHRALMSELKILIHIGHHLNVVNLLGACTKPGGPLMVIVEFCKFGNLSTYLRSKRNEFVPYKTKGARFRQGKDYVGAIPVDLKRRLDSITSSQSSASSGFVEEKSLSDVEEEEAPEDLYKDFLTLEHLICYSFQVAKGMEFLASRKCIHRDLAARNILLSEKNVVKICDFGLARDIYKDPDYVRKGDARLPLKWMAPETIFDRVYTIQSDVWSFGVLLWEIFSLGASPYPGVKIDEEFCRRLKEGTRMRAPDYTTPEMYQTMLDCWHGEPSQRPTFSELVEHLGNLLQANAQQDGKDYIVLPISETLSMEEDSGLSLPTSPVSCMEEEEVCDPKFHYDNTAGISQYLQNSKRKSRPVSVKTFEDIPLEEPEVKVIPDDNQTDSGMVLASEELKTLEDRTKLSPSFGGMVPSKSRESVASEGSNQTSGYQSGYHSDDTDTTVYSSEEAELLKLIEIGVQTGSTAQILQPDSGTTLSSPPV
T1 sequence (P16234 24-1089): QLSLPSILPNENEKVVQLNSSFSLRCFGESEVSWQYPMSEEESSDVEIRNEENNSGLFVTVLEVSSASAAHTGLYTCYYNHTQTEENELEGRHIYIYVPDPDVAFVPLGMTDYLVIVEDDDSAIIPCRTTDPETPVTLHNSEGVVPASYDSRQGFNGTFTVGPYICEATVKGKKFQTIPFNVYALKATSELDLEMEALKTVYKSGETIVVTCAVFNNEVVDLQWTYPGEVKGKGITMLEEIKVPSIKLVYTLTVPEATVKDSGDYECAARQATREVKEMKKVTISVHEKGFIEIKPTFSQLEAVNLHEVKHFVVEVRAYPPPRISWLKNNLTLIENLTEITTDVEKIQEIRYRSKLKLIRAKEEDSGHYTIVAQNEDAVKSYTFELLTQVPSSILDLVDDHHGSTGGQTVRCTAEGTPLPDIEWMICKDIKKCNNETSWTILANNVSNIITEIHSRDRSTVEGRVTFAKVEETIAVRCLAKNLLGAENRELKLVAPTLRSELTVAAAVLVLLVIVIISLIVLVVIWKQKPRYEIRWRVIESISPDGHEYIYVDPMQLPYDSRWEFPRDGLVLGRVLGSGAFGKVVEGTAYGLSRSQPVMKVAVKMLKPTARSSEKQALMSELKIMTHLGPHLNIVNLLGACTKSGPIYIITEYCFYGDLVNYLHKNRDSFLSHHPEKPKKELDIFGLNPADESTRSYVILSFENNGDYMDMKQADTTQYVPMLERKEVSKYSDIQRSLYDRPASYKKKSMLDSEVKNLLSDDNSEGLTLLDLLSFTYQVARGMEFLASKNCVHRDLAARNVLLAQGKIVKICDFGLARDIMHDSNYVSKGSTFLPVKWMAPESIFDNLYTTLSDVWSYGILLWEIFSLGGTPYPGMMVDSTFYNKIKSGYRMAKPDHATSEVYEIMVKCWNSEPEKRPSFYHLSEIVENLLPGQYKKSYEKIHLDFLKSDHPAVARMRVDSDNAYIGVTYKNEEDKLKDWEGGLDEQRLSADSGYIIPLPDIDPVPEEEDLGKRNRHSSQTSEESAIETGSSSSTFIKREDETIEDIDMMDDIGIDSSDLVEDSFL
T2 sequence (P09619 33-1106): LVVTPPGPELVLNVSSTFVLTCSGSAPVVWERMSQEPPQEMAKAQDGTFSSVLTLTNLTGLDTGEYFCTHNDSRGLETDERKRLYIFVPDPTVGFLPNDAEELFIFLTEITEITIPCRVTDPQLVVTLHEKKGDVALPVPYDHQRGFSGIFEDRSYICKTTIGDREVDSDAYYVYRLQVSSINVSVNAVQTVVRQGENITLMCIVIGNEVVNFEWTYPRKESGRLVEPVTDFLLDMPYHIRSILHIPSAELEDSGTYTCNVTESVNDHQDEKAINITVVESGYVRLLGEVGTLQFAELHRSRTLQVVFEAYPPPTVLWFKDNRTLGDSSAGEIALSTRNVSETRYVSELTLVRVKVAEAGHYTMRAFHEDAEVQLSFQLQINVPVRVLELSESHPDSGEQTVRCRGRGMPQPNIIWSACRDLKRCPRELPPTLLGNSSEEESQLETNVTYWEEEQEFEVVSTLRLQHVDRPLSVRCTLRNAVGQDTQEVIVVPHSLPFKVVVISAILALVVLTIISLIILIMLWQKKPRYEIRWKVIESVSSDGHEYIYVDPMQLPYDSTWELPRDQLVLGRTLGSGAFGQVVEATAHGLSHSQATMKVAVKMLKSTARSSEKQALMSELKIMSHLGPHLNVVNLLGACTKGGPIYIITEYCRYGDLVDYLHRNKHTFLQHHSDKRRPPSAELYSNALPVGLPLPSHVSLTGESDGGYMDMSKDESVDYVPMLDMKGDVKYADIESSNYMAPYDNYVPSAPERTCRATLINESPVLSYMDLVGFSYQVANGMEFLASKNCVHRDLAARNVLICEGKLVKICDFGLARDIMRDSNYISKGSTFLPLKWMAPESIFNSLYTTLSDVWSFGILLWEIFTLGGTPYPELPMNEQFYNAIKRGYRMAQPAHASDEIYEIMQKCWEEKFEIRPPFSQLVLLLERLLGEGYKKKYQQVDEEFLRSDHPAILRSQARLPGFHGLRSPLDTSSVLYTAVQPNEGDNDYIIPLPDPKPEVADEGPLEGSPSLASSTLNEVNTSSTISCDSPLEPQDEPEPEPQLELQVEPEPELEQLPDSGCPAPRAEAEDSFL

For “CT23: negative control, C-terminal 23-amino acid peptide, residues 1650 to 1672 of KIF13B (RVRASELRSFSRMLAGDPGCSPG)”, the “VEGF-induced migration of HUVECs (wound closure)” value [1] was “migrated and closed the wound”, the “number of branching point structures per bead” value [2] was 4-6 branches and the “number of sprouts per bead” value [2] was 13-16 sprouts. For the same substance, the “PDGFRα among binding proteins, number of hits” value [3] was “did not interact”, the “PDGFRβ among binding proteins, number of hits” value [4] was “did not interact” and the “EGFR among binding proteins, number of hits” value [5] was “did not interact”. The “KD value, VEGFR2” value [6] was “did not bind”, the VEGF-induced proliferation [7] was “had no effect” and the “uptake of the peptides by HUVECs” value [8] was “shown to internalize”.

Reference: patent US11299524B2, “KIF13B-derived peptide and method of inhibiting angiogenesis” (THE BOARD OF TRUSTEES OF THE UNIVERSITY OF ILLINOIS, priority 2016, dated 2022)
